According to patent US20250017998A1, “SP-8356, EMODIN, AND IT603 ENHANCE BEIGE ADIPOCYTE ACTIVITY AND ALLEVIATE OBESITY AND DIABETES VIA UNCOUPLING PROTEIN 1 (UCP1)-INDEPENDENT MECHANISM” (The Chinese University of Hong Kong, priority 2023, published 2025):

Columns and labels:
[1] = test system: WT human beige adipocytes; experiment: Seahorse Mitochondrial Stress Test, oxygen consumption rate in WT human beige adipocytes; type: cell-based; details: 1 μM, 24 h, WT hiPSC-derived beige adipocytes, vs DMSO (FIGS. 2A-2C)
Method: (§1) FIGS. 2A-2F. SP-8356, emodin, and IT603 increase energy expenditure in human beige adipocytes in a UCP1-independent manner. WT or UCP1 knockout hiPSCs were differentiated to beige adipocytes followed by treatment with SP-8356 (1 μM), Emodin (1 μM), and IT603 (1 μM) for 24 h, respectively. DMSO was used as the vehicle control. The oxygen consumption rate (OCR) was examined by the Seahorse Mitochondrial Stress Test assay. (FIGS. 2A-2C) OCR in WT human beige adipocytes treated with SP-8356, Emodin, and IT603, respectively. (FIGS. 2D-2F) OCR in UCP1 knockout human beige adipocytes treated with SP-8356, Emodin, and IT603, respectively. *p<0.05, **p<0.01. A total of 20 days was required for hiPSC differentiation into beige adipocytes. We used BMP4 (10 ng/mL) and ActivinA (25 ng/mL) from day 0 to day 4 to induce mesodermal differentiation in the first stage. We then induce mesodermal progenitors to differentiate into adipocyte progenitors with insulin ([…]), isobutylmethylxanthine (IBMX) (500 μmol/L), dexamethasone (1 μmol/L), and indomethacin (50 μmol/L) from day 4 to day 10. Eventually, mature beige adipocytes will be formed by insulin (1 μg/mL) induction on day 10 to 20. […] were plated in the XF96 plates (Agilent Technologies, Inc., Santa Clara, CA) and differentiated into the beige adipocytes. The XF Cell Mito Stress Test Kit (Seahorse Bioscience, 103015-100) was used to perform the assay by following the manufacturer's instructions.

[2] = test system: UCP1 knockout human beige adipocytes; experiment: Seahorse Mitochondrial Stress Test, oxygen consumption rate in UCP1 knockout human beige adipocytes; type: cell-based; details: 1 μM, 24 h, UCP1 knockout hiPSC-derived beige adipocytes, vs DMSO (FIGS. 2D-2F)
Method: as §1

[3] = test system: LETMD1; experiment: RNA-seq of LETMD1 mRNA in hiPSC-derived beige adipocytes; type: cell-based, human; details: 0.1 μM, 24 h, RNA sequencing (FIG. 1B)
Method: (§2) FIGS. 1A-1C. Generation and characterization of the LETMD1-tdTomato reporter hiPSC. (FIG. 1A) Schematic illustration of the knock-in design for the LETMD1-tdTomato reporter hiPSCs. (FIG. 1B) hiPSCs were differentiated into beige adipocytes and treated with β3 adrenergic receptor (β3-AR) agonist Mirabegron (0.1 μM) for 24 h and subjected to RNA-seq. The fold change of LETMD1 and its analogue LETM1 were plotted. (FIG. 1C) Representative images of tdTomato fluorescence intensity in LETMD1 reporter hiPSC-derived beige adipocytes treated with or without Mirabegron (0.1 μM) for 24 h.
A total of 20 days was required for hiPSC differentiation into beige adipocytes. We used BMP4 (10 ng/mL) and ActivinA (25 ng/mL) from day 0 to day 4 to induce mesodermal differentiation in the first stage. We then induce mesodermal progenitors to differentiate into adipocyte progenitors with insulin ([…]), isobutylmethylxanthine (IBMX) (500 μmol/L), dexamethasone (1 μmol/L), and indomethacin (50 μmol/L) from day 4 to day 10. […]
(§3) To monitor the endogenous LETMD1 expression in human iPSCs with ease, we generated a fluorescent protein-based reporter human iPS cell line using a CRISPR/Cas9-mediated knock-in (KI) system (FIG. 1A). […] This cell line enables us to monitor the endogenous expression of LETMD1 in a high-throughput manner using the red fluorescence intensity as a surrogate.

[4] = test system: LETMD1; experiment: LETMD1-tdTomato reporter hiPSC-derived beige adipocytes, red fluorescence; type: cell-based, human; details: 0.1 μM, 24 h, LETMD1 reporter hiPSC-derived beige adipocytes (FIG. 1C)
Method: as §2
A total of 20 days was required for hiPSC differentiation into beige adipocytes. […]
LETMD1 reporter hiPSCs were plated in the 96-well plates and differentiated into beige adipocytes. […] After that, the red fluorescent signals were quantified by the ThermoFisher (Waltham, MA) Varioskan Multimode Microplate Reader. […] measurement for each compound was normalized to the vehicle control group.
as §3

| Compound | oxygen consumption rate (OCR) [1] | oxygen consumption rate (OCR) [2] | mRNA level of LETMD1 [3] | density of tdTomato fluorescent protein [4] |
| --- | --- | --- | --- | --- |
| COc1cc(Br)cc(/C=C2/NC(=S)NC2=O)c1O [IT603] | showed most significant capacity to elevate the OCR | enhanced the OCR |  |  |
| Nc1nc(CC(=O)Nc2ccc(CCNC[C@H](O)c3ccccc3)cc2)cs1 [Mirabegron] |  |  | significantly increased | increased significantly |
| COc1cc(/C=C/C2=CC(=O)[C@H]3C[C@@H]2C3(C)C)cc(O)c1O [SP-8356] | showed most significant capacity to elevate the OCR | enhanced the OCR |  |  |
| Cc1cc(O)c2c(c1)C(=O)c1cc(O)cc(O)c1C2=O [emodin] | showed most significant capacity to elevate the OCR | enhanced the OCR |  |  |
